Patent publication US11065253B2, “Arylquinazolines” (Merck Patent GmbH, priority 2013, dated 2021)
Where two headings read alike, the source gives them in different places. Each block holds one compound with its values, some of them ahead of it.

System: phospho-serine 2056 DNA-PK in HCT116 cells
Assay: DNA-PK phosphorylation at serine 2056 (cellular), ELISA in bleomycin-treated HCT116 cells
Format: cell-based
Conditions: read-out: IC50 pDNA-PK
Outline: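 HCT116, MEM alpha + 10% FCS, 37 °C/10% CO2, seeded o/n. Cpd + 10 μM bleomycin, 6 h. ELISA, chemiluminescence; phospho/total DNA-PKcs ratio, DMSO = blank.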

[1] = Homo sapiens, HCT-116, phospho-serine 2056 DNA-PK, bleomycin-treated HCT116 cells, class symbols A-D
[2] = Homo sapiens, HCT-116, cellular DNA-PK phosphorylation at serine 2056, HCT116 cells
[3] = cellular DNA-PK phosphorylation at serine 2056, HCT116 cells
[4] = Homo sapiens, HCT-116, 6 h, cellular, HCT116 cells, 10 μM bleomycin, six hours
[5] = Homo sapiens, HCT-116, phospho-serine 2056 DNA-PK, bleomycin-treated HCT116 cells
[6] = phospho-serine 2056 DNA-PK, bleomycin-treated HCT116 cells, class symbols A-D

SMILES: OC(c1ccc(F)c(-c2ncnc3cc(N4CCOCC4)sc23)c1)c1nccs1 (stereo not shown) [Example 145, [4-Fluoro-3-(6-morpholin-4-yl-thieno[3,2-d}-pyrimidin-4-yl)-phenyl]thiazol-2-yl-methanol]
IC50 [1]: 0.5 to 5 µM

SMILES: OC(c1ccc(F)c(-c2ncnc3cc(N4CCOCC4)ccc23)c1)c1c(Cl)cncc1Cl (stereo not shown) [Example 17, (3,5-Dichloro-pyridin-4-yl)-[4-Fluoro-3-(7-morpholin-4-yl-quinazolin-4-yl)phenyl]-methanol]
IC50 [4]: 0.5 to 5 µM

SMILES: COc1nccnc1C(O)c1cc(-c2ncnc3cc(N4CCOCC4)ccc23)ccc1Cl (stereo not shown) [Example 410, [2-Chloro-5-(7-morpholin-4-yl-quinazolin-4-yl)-phenyl]-(3-methoxy-pyrazin-2-yl)-methanol (Ena 2)]
IC50 [2]: < 0.5 µM

SMILES: COc1cnc(C(O)c2ccc(OC)c(-c3ncnc4cc(N5CCOCC5)ccc34)c2)cn1 (stereo not shown) [Example 61, [4-methoxy-3-(7-morpholin-4-yl-quinazolin-4-yl)phenyl]-(5-methoxypyrazin-2-yl)methanol]
IC50 [4]: 10 to 30 µM

SMILES: OC(c1cccc(-c2ncnc3cc(N4CCOCC4)ccc23)c1)(c1nccs1)C(F)(F)F (stereo not shown) [Example 159, 2,2,2-Trifluoro-1-[3-(7-morpholin-4-yl-quinazolin-4-yl)-phenyl]-1-thiazol-2-ylethanol]
IC50 [1]: 10 to 30 µM

SMILES: Cc1nc(C(O)c2cnc(F)c(-c3ncnc4cc(N5CCOCC5)ncc34)c2)sc1C (stereo not shown) [Example 196, (4,5-Dimethyl-thiazol-2-yl)-[6-fluoro-5-(7-morpholin-4-yl-pyrido[4,3-d}-pyrimidin-4-yl)-pyridin-3-yl]-methanol]
IC50 [1]: 10 to 30 µM

SMILES: Cn1cnc2c(C(O)c3cc(-c4ncnc5cc(N6CCOCC6)ccc45)c(F)cc3F)ncnc21 (stereo not shown) [Example 421, [2,4-Difluoro-5-(7-morpholin-4-yl-quinazolin-4-yl)-phenyl]-(9-methyl-9H-purin-6-yl)-methanol]
IC50 [2]: 0.5 to 5 µM

SMILES: Cn1c(C(O)c2ccc(F)c(-c3ncnc4cc(N5CCOCC5)ccc34)c2)cccc1=O (stereo not shown) [Example 91, 6-{[4-Fluoro-3-(7-morpholin-4-yl-quinazolin-4-yl)-phenyl]hydroxy-methyl}-1-methyl-1H-pyridin-2-one]
IC50 [4]: < 0.5 µM

SMILES: COc1nnccc1C(C(N)=O)c1cc(-c2ncnc3cc(N4CCOCC4)ccc23)c(F)cc1Cl (stereo not shown) [Example 307, 2-[2-Chloro-4-fluoro-5-(7-morpholin-4-yl-quinazolin-4-yl)-phenyl]-2-(3-methoxypyridazin-4-yl)acetamide]
IC50 [5]: 5 to 10 µM

SMILES: Cn1nc(C(O)c2ccc(F)c(-c3ncnc4cc(N5CCOCC5)ccc34)c2F)ccc1=O (stereo not shown) [Example 220, 6-{[2,4-Difluoro-3-(7-morpholin-4-yl-quinazolin-4-yl)-phenyl]hydroxy-methyl}-2-methyl-2H-pyridazin-3-one]
IC50 [1]: 5 to 10 µM

SMILES: COc1nccnc1C(O)c1cc(-c2ncnc3cc(N4CCOCC4)ccc23)ccc1Cl (stereo not shown) [Example 422, [2-Chloro-5-(7-morpholin-4-yl-quinazolin-4-yl)-phenyl]-(3-methoxy-pyrazin-2-yl)-methanol]
IC50 [3]: 0.5 to 5 µM

SMILES: COc1ccc(C(O)c2cc(-c3ncnc4cc(N5CCOCC5)ccc34)c(F)cc2F)nc1 (stereo not shown) [Example 224, [2,4-Difluoro-5-(7-morpholin-4-yl-quinazolin-4-yl)-phenyl]-(5-methoxy-pyridin-2-yl)methanol]
IC50 [1]: 0.5 to 5 µM

SMILES: COc1cncnc1C(O)c1cc(-c2ncnc3cc(N4CCOCC4)ccc23)c(F)cc1F (stereo not shown) [Example 448, [2,4-Difluoro-5-(7-morpholin-4-yl-quinazolin-4-yl)-phenyl]-(5-methoxy-pyrimidin-4-yl)-methanol]
IC50 [2]: 0.5 to 5 µM

SMILES: O=c1ccc(C(O)c2cc(-c3ncnc4cc(N5CCOCC5)ccc34)c(F)cc2Cl)nn1CCO (stereo not shown) [Example 99, 6-{[2-Chloro-4-fluoro-5-(7-morpholin-4-yl-quinazolin-4-yl)phenyl]-hydroxymethyl}-2-(2-hydroxy-ethyl)-2H-pyridazin-3-one]
IC50 [4]: 0.5 to 5 µM

SMILES: COc1ccc(C(O)c2cc(-c3ncnc4cc(N5CCOCC5)ccc34)c(F)cc2F)c(F)c1 (stereo not shown) [Example 124, [2,4-Difluoro-5-(7-morpholin-4-yl-quinazolin-4-yl)-phenyl]-(2-fluoro-4-methoxy-phenyl)methanol]
IC50 [1]: 0.5 to 5 µM

SMILES: OC(c1cc(-c2ncnc3cc(N4CCOCC4)ccc23)c(F)cc1F)c1ncnc2ccoc12 (stereo not shown) [Example 446, [2,4-Difluoro-5-(7-morpholin-4-yl-quinazolin-4-yl)-phenyl]furo[3,2-d}-pyrimidin-4-yl-methanol]
IC50 [3]: 0.5 to 5 µM

SMILES: OC(c1cc(-c2ncnc3cc(N4CCOCC4)ccc23)c(F)cc1F)c1ncnc2sccc12 (stereo not shown) [Example 90, [2,4-Difluoro-5-(7-morpholin-4-yl-quinazolin-4-yl)-phenyl]thieno[2,3-d}-pyrimidin-4-ylmethanol]
IC50 [4]: < 0.5 µM

SMILES: CC(C#N)Oc1ccc(C(O)c2cc(-c3ncnc4cc(N5CCOCC5)ccc34)c(F)cc2Cl)nn1 (single isomer, unassigned) [Example 102, 2-(6-{[2-Chloro-4-fluoro-5-(7-morpholin-4-yl-quinazolin-4-yl)-phenyl]hydroxy-methyl}pyridazin-3-yloxy)propionitrile]
IC50 [6]: < 0.5 µM

SMILES: COc1ccc(C(O)c2cc(-c3ncnc4cc(N5CCOCC5)sc34)c(F)cc2Cl)nn1 (single isomer, unassigned) [Example 126, [2-Chloro-4-fluoro-5-(6-morpholin-4-ylthieno[3,2-d}-pyrimidin-4-yl)-phenyl]-(6-methoxy-pyridazin-3-yl)-methanol]
IC50 [6]: < 0.5 µM

Further lines, results first:

IC50 [2]: 0.5 to 5 µM
SMILES: OC(c1cc(-c2ncnc3cc(N4CCOCC4)ccc23)ccc1F)c1cccc2nncn12 (stereo not shown) [Example 373, [2-Fluoro-5-(7-morpholin-4-yl-quinazolin-4-yl)-phenyl]-[1,2,4]-triazolo[4,3-a]pyridin-5-ylmethanol]

IC50 [3]: 0.5 to 5 µM
SMILES: Cc1cncnc1C(C(N)=O)c1cc(-c2ncnc3cc(N4CCOCC4)ccc23)ccc1Cl (stereo not shown) [Example 407, 2-[2-Chloro-5-(7-morpholin-4-yl-quinazolin-4-yl)-phenyl]-2-(5-methyl-pyrimidin-4-yl)-acetamide]

IC50 [2]: 0.5 to 5 µM
SMILES: Cn1cnc2c(C(O)c3cc(-c4ncnc5cc(N6CCOCC6)ccc45)ccc3Cl)ncnc21 (stereo not shown) [Example 371, [2-Chloro-5-(7-morpholin-4-yl-quinazolin-4-yl)-phenyl]-(9-methyl-9H-purin-6-yl)-methanol]

IC50 [3]: < 0.5 µM
SMILES: COc1nccnc1C(O)c1cc(-c2ncnc3cc(N4CCOCC4)ccc23)c(F)cc1F (stereo not shown) [Example 454]

IC50 [3]: < 0.5 µM
SMILES: OC(c1cccnn1)c1cc(-c2ncnc3cc(N4CCOCC4)ccc23)ccc1Cl (stereo not shown) [Example 479, [2-Chloro-5-(7-morpholin-4-yl-quinazolin-4-yl)-phenyl]pyridazin-3-yl-methanol]

IC50 [2]: < 0.5 µM
SMILES: OC(c1cc(-c2ncnc3cc(N4CCOCC4)ccc23)ccc1Cl)c1ncnc2ccoc12 (stereo not shown) [Example 414, [2-Chloro-5-(7-morpholin-4-yl-quinazolin-4-yl)-phenyl]furo[3,2-d}-pyrimidin-4-yl-methanol (Ena 2)]

IC50 [4]: < 0.5 µM
SMILES: OC(c1ccn2nccc2n1)c1cc(-c2ncnc3cc(N4CCOCC4)ccc23)c(F)cc1Cl (stereo not shown) [Example 39, [2-Chloro-4-fluoro-5-(7-morpholin-4-yl-quinazolin-4-yl)phenyl]-pyrazolo[1,5-a]-pyrimidin-5-ylmethanol]

IC50 [5]: < 0.5 µM
SMILES: OC(c1ccc(F)c(-c2ncnc3cc(N4CCOCC4)ccc23)c1)c1nccc2ccoc12 (stereo not shown) [Example 328, [4-Fluoro-3-(7-morpholin-4-yl-quinazolin-4-yl)-phenyl]furo[2,3-c]-pyridin-7-ylmethanol]

IC50 [1]: 0.5 to 5 µM
SMILES: N#Cc1ccc(C(O)c2cc(-c3ncnc4cc(N5CCOCC5)ccc34)c(F)cc2Cl)nn1 (stereo not shown) [Example 118, 6-{[2-Chloro-4-fluoro-5-(7-morpholin-4-yl-quinazolin-4-yl)-phenyl]hydroxy-methyl}pyridazine-3-carbonitrile]

IC50 [1]: 10 to 30 µM
SMILES: Cc1nc(C(O)c2cc(-c3ncnc4cc(N5CCOCC5)ccc34)cnc2F)sc1C (stereo not shown) [Example 205, (4,5-Dimethyl-thiazol-2-yl)-[2-fluoro-5-(7-morpholin-4-yl-quinazolin-4-yl)-pyridin-3-yl]-methanol]

IC50 (cellular, HCT116 cells, 10 μM bleomycin, six hours): 0.5 to 5 µM
SMILES: OC(c1ccc2nccn2n1)c1cc(-c2ncnc3cc(N4CCOCC4)ccc23)c(F)cc1Cl (stereo not shown) [Example 63, [2-Chloro-4-fluoro-5-(7-morpholin-4-yl-quinazolin-4-yl)phenyl]-imidazo[1,2-b]pyridazin-6-ylmethanol]

IC50 [3]: 0.5 to 5 µM
SMILES: Cc1nccnc1C(O)c1cc(-c2ncnc3cc(N4CCOCC4)ccc23)ccc1Cl (stereo not shown) [Example 427, [2-Chloro-5-(7-morpholin-4-yl-quinazolin-4-yl)-phenyl]-(3-methyl-pyrazin-2-yl)-methanol (Ena 1)]

IC50 [1]: < 0.5 µM
SMILES: COc1ccc([C@@H](O)c2cc(-c3ncnc4cc(N5CCOCC5)ccc34)c(F)cc2Cl)nn1 [Example 136, (S)-[2-Chloro-4-fluoro-5-(7-morpholin-4-yl-quinazolin-4-yl)-phenyl]-(6-methoxy-pyridazin-3-yl)-methanol]

IC50 [1]: 10 to 30 µM
SMILES: OC(c1cc(F)cc(-c2ncnc3cc(N4CCOCC4)ccc23)c1)c1nccs1 (stereo not shown) [Example 169, [3-Fluoro-5-(7-morpholin-4-yl-quinazolin-4-yl)-phenyl]thiazol-2-yl-methanol]

IC50 [2]: 5 to 10 µM
SMILES: OC(c1cc(-c2ncnc3cc(N4CCOCC4)ccc23)ccc1Cl)c1nccn2ccnc12 (stereo not shown) [Example 369, [2-Chloro-5-(7-morpholin-4-yl-quinazolin-4-yl)-phenyl]imidazo-[1,2-a]pyrazin-8-yl-methanol]
